Data as given in patent US7732425B2, “Pharmaceutical composition for ophthalmic use” (Kabushiki Kaisha Hayashibara Seibutsu Kagaku Kenkyujo, priority 2000, dated 2010).

Test system: ophthalmologic clinical symptoms and signs of Sjögren syndrome
Assay: Therapeutic experiment with α,α-trehalose eye drops in patients diagnosed with Sjögren syndrome
Format: in vivo, human
From the text: To confirm the therapeutic effect by trehalose on the ophthalmologic clinical symptoms and signs of Sjögren syndrome, patients consisting of 10 men and 10 women, 22-65 years old (a mean average of 45 years old), who were diagnosed as Sjögren syndrome and had been suffering from clinical symptoms such as foreign body sensation, burning, and itching in their both eyes, were subjected to a therapeutic experiment. In this experiment, a reagent grade of α,α-trehalose with a purity of 99% or higher, commercialized by Hayashibara Biochemical Laboratories, Inc., Okayama, Japan, was dissolved in physiological saline to give a final concentration of 3.5% (w/v) or 7.5% (w/v), and filtered with a 0.22 μm membrane filter to remove bacteria. Then, the filtrate was removed pyrogen in a usual manner for a test preparation. As a control, a similar preparation was provided except for not dissolving α,α-trehalose therein. The 3.5% (w/v) α,α-trehalose solution was administered to one eye for each one of 5-male and 5-female patients, while the physiological saline as a control was administered to the other eye for each one of the patients. The administrations were conducted at four times (getting up, daytime, evening, and before sleeping) a day and at a dose of two to three drops (a volume of about 0.05 to about 0.075 ml) per shot for four weeks. Before and after this experiment, the patients were asked to grade the symptoms of foreign body sensation, burning, and itching in their eyes. Using the 7.5% (w/v) α,α-trehalose solution, a similar experiment was conducted with the remaining male and female patients, five each.

[1] = patients with Sjögren syndrome, 3.5% or 7.5% (w/v) solution, four times a day for four weeks

OC[C@H]1O[C@H](O[C@H]2O[C@H](CO)[C@@H](O)[C@H](O)[C@H]2O)[C@H](O)[C@@H](O)[C@@H]1O [α,α-trehalose]
duration of therapeutic effect after end of administration (after completion of the four-week experiment): lasted for some days even after the completion of this experiment | exacerbation of the ophthalmologic clinical symptoms and signs in the treated eyes (all twenty patients, during and after completion of the four-week experiment): no exacerbation | improvement or remission of the subjective ophthalmic symptoms of foreign body sensation, burning, and itching (patients with Sjögren syndrome, 3.5% (w/v) or 7.5% (w/v) solution in physiological saline, one eye, 2-3 drops four times a day for four weeks, other eye saline control): nine out of ten patients | corneal and conjunctival erosions stained by fluorescein and rose bengal (objective sign) [1]: reduced in all the ten patients | tear film break-up time (objective sign) [1]: improved in nine out of ten patients
